Assay results reported in US20260325473A1, “N-Beta-Hydroxybutyryl-Amino Acids and Related Compositions and Methods” (The Board of Trustees of the Leland Stanford Junior …, priority 2023, published 2026).

Experiments:
DIO mice [1] = assay: Plasma ghrelin, leptin and GDF-15 in DIO mice; type: in vivo, mouse; details: 50 mg/kg IP, single; 1 h
Description: Leptin, ghrelin and GDF-15 measurements. Plasma was collected from DIO mice 1 h after the administration of BHB-Phe (50 mg/kg, IP) or vehicle. ELISA kits for leptin (Crystal Chem 90030), ghrelin (Cayman Chemicals 10006307) and GDF-15 (R&D Systems DY6385-05) were used following manufacturer's instructions.

DIO mice [2] = assay: Chronic administration in DIO mice: body weight and food intake; type: in vivo, mouse; details: for body weight, head-to-head keto amino acids: 5 days, vs vehicle
Description: (§1) General animal information. Animal experiments were performed according to procedure approved by the Stanford University Administrative Panel on Laboratory Animal Care (APLAC). Mice were maintained in 12-hr light-dark cycles at 22° C. and ~50% relative humidity and fed a standard irradiated rodent chow diet. Where indicated, high-fat diet (D12492, Research Diets 60% kcal from fat) and ketogenic diet (D06040601, Research Diets, 80% kcal fat/15% kcal protein/5% kcal carbohydrate) was used. Male C57BL/6J (stock no. 000664) and male C57BL/6J DIO mice (stock no. 380050) were purchased from Jackson Laboratory. Male C57BL/6NCrl (stock no. 027) mice were purchased from Charles River Laboratory. Whole body CNDP2-KO mice (catalog number, C57BL/6NCrl-Cndp2em1 (IMPC) Mbp/Mmucd, RRID: MMRRC_043492-UCD) were obtained from the Mutant Mouse Regional Resource Center, a NCRR-NIH funded strain repository. For in vivo injection of mice with metabolites, compounds were dissolved in 18:1:1 (by volume) of saline/Kolliphor EL (Sigma Aldrich)/DMSO. Compounds were administered to mice daily via intraperitoneal injections at 5 μl/g body weight at the indicated doses. For all injection experiments, mice were mock injected with the vehicle for 3-5 days until body weights have stabilized. Sample sizes were determined on the basis of previous experiments using similar methodologies. For metabolite administration experiments, mice were randomly assigned to treatment groups. Experimenters were not blinded to groups.

DIO mice [3] = assay: Acute administration in DIO mice in home cages: food intake and plasma BHB-Phe; type: in vivo, mouse; details: 50 mg/kg IP
Description: as §1
(§2) Preparation of plasma samples for LC-MS analysis. Plasma was collected from mice via a submandibular bleed into lithium heparin tubes (BD, 365985) and immediately transferred onto ice. […]
(§3) Targeted metabolomics. […] Quantification of the endogenous metabolite concentrations were performed by generating a standard curve with known concentrations of each metabolite. Metabolite standards were analyzed alongside the plasma samples using the same targeted triple quadrupole LC/MS method. […] The dilution of the plasma during the sample preparation was also taken into account for the quantification.

[4] = as above; type: in vivo, mouse; details: mouse, plasma; 50 mg/kg IP, single; read-out: time of peak plasma level
Description: as §1, §2, §3

primary cardiomyocytes = assay: Keto amino acid production in BHB-treated cardiomyocytes; type: cell-based, human; details: BHB 25 mM, overnight
Description: Human induced pluripotent stem cells (iPSCs) culture and cardiac differentiation into cardiomyocytes (CMs). Human iPSCs from healthy donors were provided by Stanford Cardiovascular Institute Biobank and cultured in the E8 medium. When iPSCs were grown to 95% confluence, the E8 medium was replaced with RPMI 1640 (GIBCO) supplemented with B27 minus insulin (GIBCO) and 5 µM CHIR-99021 (Selleck Chemicals) to start cardiac differentiation at day 0. On day 2, the medium was replaced with RPMI-B27 minus insulin. On day 3, the medium was changed to RPMI-B27 minus insulin containing 5 μM IWR-1 (Selleck Chemicals) and was maintained for 48 hours. On day 5, the medium was changed back to RPMI-B27 minus insulin and was maintained for 48 hours. Then, the cells were incubated with complete CM medium consisting of RPMI 1640 medium and B27 supplement plus insulin (GIBCO). On day 12, the medium was replaced with RPMI-B27 without D-glucose (GIBCO) for metabolic purification of CMs for 4 days. Then, the medium was changed to the complete CM medium and replaced every 2 days. Human iPSC-CMs were dissociated by TrypLE Express (GIBCO) and re-plated on Matrigel-coated 12-well plate for further experiments. Cultures were maintained at 37° C. in a humidified incubator with 5% (v/v) CO^2.
Cellular enzyme activity assays. Cells were plated in 12-well plates at 70-80% confluence. […]

Row | Compound | plasma GDF15 (DIO mice [1]) | plasma ghrelin (DIO mice [1]) | plasma leptin (DIO mice [1]) | food intake and body weight, related metabolites and dipeptides (DIO mice [2]; 50 mg/kg IP, 9 days) | body weight and food intake, conjugate vs components (DIO mice [2]; 50 mg/kg/day IP, BHB or phenylalanine at the same doses, 9 days) | body weight gain, 2-week study (DIO mice [2]; 50 mg/kg/day IP, 2 weeks) | daily food intake, 2-week study (DIO mice [2]; 50 mg/kg/day IP, 2 weeks) | body weight gain (DIO mice [2]; 50 mg/kg/day IP, 10-day period) | suppression of daily food intake, average (DIO mice [2]; 50 mg/kg/day IP, 10-day period) | body weight, head-to-head keto amino acids (DIO mice [2]; 50 mg/kg/day IP) | weight loss compared with pair-fed controls (DIO mice [2]; 50 mg/kg/day IP, 6 days) | time to return of plasma level to largely baseline values (DIO mice [3]; single) | food intake after single administration (home cages) (DIO mice [3]; 3 h and 1 h) | Tmax [4] | keto amino acid production by cardiomyocytes (primary cardiomyocytes)
1 | CC(O)CC(=O)N[C@@H](Cc1ccccc1)C(=O)O (stereo partly shown) [BHB-Phe, N-betahydroxybutyryl-phenylalanine] | unaltered | unaltered | unaltered | suppressed food intake and body weight | efficiently suppressed body weight and food intake | concomitant reduction in body weight gain | durable suppression of daily food intake | concomitant reduction in body weight gain | −30% | effective in suppressing body weight | lost the same amount of weight as pair-fed controls | ≤ 3 h | suppressed food intake at a 3 h, but not 1 h time point | 1 h | minor amount
2 | CC(O)CC(=O)N[C@H](C(=O)O)C(C)C (stereo partly shown) [BHB-Val, N-betahydroxybutyryl-valine] |  |  |  |  |  |  |  |  |  | effective in suppressing body weight |  |  |  |  | 
